Test results published in patent US20240059685A1, “PIEZO1 AGONISTS FOR THE PROMOTION OF BONE FORMATION” (BIOVENTURES, LLC, priority 2019, published 2024).
Entries after “also recorded” stand apart in the source; their conditions may differ.

How the values were obtained:
Assay type in all cases: cell-based, murine
Piezo1 [1] = target: T1, Piezo1 (Mus musculus, UniProt E2JF22); experiment: qPCR gene expression of Wnt1, Ptgs2 and Tnfrsf11b in MLO-Y4 cells; settings: MLO-Y4 cells, 10 μM, 2 hours
T1 construct: To identify Piezo1 stimulators, we treated MLO-Y4 cells with compounds; endogenous in cells; host or cells: MLO-Y4 (murine osteocyte-like cell line); control sh-Luc cells, with sh-Piezo1 knock-down cells as the specificity control
Description: Cell cultures. MLO-Y4 cells were cultured in α-MEM supplemented with 5% FBS, 5% BCS, and 1% penicillin/streptomycin/glutamine. Fifteen dynes/cm^2 oscillatory fluid shear stress was applied on MLO-Y4 cells at 1 Hz for 2 hours using an IBDI pump system (IBIDI, German). For Yoda1 treatment, cells were cultured in the presence of 10 μM Yoda1 (Sigma, St. Louis, MO) or DMSO for 2 hours. Immediately after the treatments, we isolated RNA from cells using RNeasy mini kit (Qiagen, German) for qPCR or RNA-seq analysis. To silence Piezo1, we generated Piezo1 shRNA expression plasmid using the following oligonucleotides in the pLKO.1-TRC cloning vector (Addgene Plasmid #10878, a gift from David Root): forward oligo: 5′-CCGGTC-[…]-3′ (SEQ ID NO: 1); reverse oligo: 5′-[…]-CGA-3′ (SEQ ID NO: 2) (Zhang et al., 2017). Yap1 shRNA (TRCN0000238432) and Taz shRNA (TRCN0000095951) were purchased from Sigma (St. Louis, MO). A shRNA against firefly luciferase was used as a control (Sigma, St. Louis, MO). For virus production, HEK293T cells were cultured in a 6-well culture plate and co-transfected with a total 3 μg of lentiviral shRNA vector, pMD2G (Addgene plasmid #12259, a gift from Didier Trono), and psPAX2 (Addgene plasmid #12260, a gift from Didier Trono) at the ratio of 2:0.9:0.4 using TransIT-LT1 transfection reagent (Mirus, Madison, WI). Culture media was changed 12 hours after transfection and viral supernatants were collected 48 hours after media change. Viral supernatants were filtered through a 0.45 μm filter and used immediately to transduce cells cultured in a 10 cm dish. Cells were then subjected to selection with G418 (100 μg/ml) or puromycin (25 μg/ml) for 5 days before treatment. To overexpress Piezo1 in MLO-Y4 cells, we transfected mPiezo1-IRES-eGFP (Addgene plasmid #80925, a gift from Ardem Patapoutian) into MLO-Y4 cells using TransIT-LT1 transfection reagent (Mirus, Madison, WI) and then treated these cells with 15 dynes/cm^2 oscillatory fluid shear stress at 1 Hz for 2 hours. Plasmids for expression of Cas9 and sgRNAs for knocking out Piezo1 in UAMS-32 cells were prepared by inserting oligonucleotides encoding the desired sgRNA sequence into the pX458 vector using the protocol recommended by the Zhang laboratory (Cong et al., 2013). Plasmids expressing Cas9 and Piezo1 sgRNAs were transfected into UAMS-32 cells using TransIT-LT1 transfection reagent (Mirus, Madison, WI). Cells were sorted into 96-well plates for single cell cloning 48 hours after transfection. Single cell colonies were then screened for homozygous deletion using the following primers: Forward: 5′-[…]-3′ (SEQ ID NO: 5), Reverse: 5′-[…]-3′ (SEQ ID NO: 6). All homozygous mutant cell colonies were then pooled together for further analysis. Cas9 transfected cells were used as a control. All in vitro cell culture experiments were performed three times with three technical replicates.
Quantitative PCR. Organs and whole bones were harvested from animals, removed of soft tissues, and stored immediately in liquid nitrogen. We prepared osteocyte-enriched bone by removing the ends of femurs and tibias and then flushing the bone marrow with PBS. We then scraped the bone surface with a scalpel and froze them in liquid nitrogen for later RNA isolation, or decalcified them for genomic DNA isolation. We isolated total RNA using TRIzol (Life technologies, NY), according to the manufacturer's instructions and prepared cDNA using High Capacity first strand cDNA synthesis kit (Life Technologies). We performed quantitative RT-PCR using the following Taqman assays from Applied Biosystems: Piezo1 (Mm01241549_m1); Piezo2 (Mm01265861_m1); Ptgs2 (Mm00478374_m1); Cyr61 (Mm00487498_m1); Wnt1 (Mm01300-555_g1); Yap1 (Mm011432-63_m1); Taz (Mm01289583_m1); Tnfsf11 Mm00441906_m1; Tnfrsf11b (Mm00435452_m1); Sost (Mm00470479_m1); and ribosomal protein S2 (Mrps2) (Mm00475529_m1). We calculated relative mRNA amounts using the ΔCt method (Livak and Schmittgen, 2001). […]

Piezo1 [2] = target: T1, Piezo1; experiment: Intracellular calcium concentration (Fluo-8) in control or Piezo1 knock-down MLO-Y4 cells; settings: Piezo1 knock-down (sh-Piezo1) MLO-Y4 cells, 10 μM
Description: Calcium concentration measurement. For intracellular calcium concentration measurement under fluid flow condition, 1×10^5 MLO-Y4 cells were seeded in a μ-Slide I Luer (0.4 mm) fluid chamber slide (MIDI, Germany) overnight. One hour before initiating fluid flow, the culture medium was removed and 100 μl Hank's Buffer with Hepes (HHBS) containing 4μM Fluo-8 (Abcam, Cambridge, MA) was added to the culture, as described by the manufacturer. The cells were then cultured at 37° C. for 30 minutes. After additional incubation at room temperature for 30 minutes, the chamber slide was placed under a confocal microscope in order to record the intensity of fluorescence of MLO-Y4 cells. Fluorescence was recorded for 3 minutes before starting fluid flow using HHBS and then recorded for another 10 minutes. The increase of intracellular concentration was calculated by subtracting the initial mean fluorescence. For measuring intracellular calcium concentration in cells with Yoda1 treatment, we cultured 4,000 MLO-Y4 cells per well in a 96-well-plate. We preloaded the cells with Fluo-8 as described by the manufacturer and read the intensity of the fluorescence using a Victor X3 multi-label plate reader (Perkin Elmer, Waltham, MA) immediately after the treatment. We measured the fluorescence for 5 minutes at an interval of 20 seconds. The percentage of increase in intracellular calcium concentration was calculated as (Fx-F0)/F0.
(§1) To identify Piezo1 stimulators, we treated MLO-Y4 cells with compounds Yoda1, YW-3-159, W-3-163, W-3-168-1, W-3-168-2, W-3-170, W-3-173-1, W-3-173-2, and YW-3-174. Gene expression of Wnt1, Ptgs2, and Tnfrsf11b was measured to determine the activation of Piezo1. In addition, intracellular calcium concentration was measured to determine the activity of Piezo1 channel. […] Yoda1 was used as a positive control in all experiments.

Piezo1 [3] = target: T1, Piezo1; experiment: Activation of Piezo1 in MLO-Y4 cells, overall conclusion from gene expression and calcium influx
Description: as §1

T1 sequence (E2JF22 whole entry): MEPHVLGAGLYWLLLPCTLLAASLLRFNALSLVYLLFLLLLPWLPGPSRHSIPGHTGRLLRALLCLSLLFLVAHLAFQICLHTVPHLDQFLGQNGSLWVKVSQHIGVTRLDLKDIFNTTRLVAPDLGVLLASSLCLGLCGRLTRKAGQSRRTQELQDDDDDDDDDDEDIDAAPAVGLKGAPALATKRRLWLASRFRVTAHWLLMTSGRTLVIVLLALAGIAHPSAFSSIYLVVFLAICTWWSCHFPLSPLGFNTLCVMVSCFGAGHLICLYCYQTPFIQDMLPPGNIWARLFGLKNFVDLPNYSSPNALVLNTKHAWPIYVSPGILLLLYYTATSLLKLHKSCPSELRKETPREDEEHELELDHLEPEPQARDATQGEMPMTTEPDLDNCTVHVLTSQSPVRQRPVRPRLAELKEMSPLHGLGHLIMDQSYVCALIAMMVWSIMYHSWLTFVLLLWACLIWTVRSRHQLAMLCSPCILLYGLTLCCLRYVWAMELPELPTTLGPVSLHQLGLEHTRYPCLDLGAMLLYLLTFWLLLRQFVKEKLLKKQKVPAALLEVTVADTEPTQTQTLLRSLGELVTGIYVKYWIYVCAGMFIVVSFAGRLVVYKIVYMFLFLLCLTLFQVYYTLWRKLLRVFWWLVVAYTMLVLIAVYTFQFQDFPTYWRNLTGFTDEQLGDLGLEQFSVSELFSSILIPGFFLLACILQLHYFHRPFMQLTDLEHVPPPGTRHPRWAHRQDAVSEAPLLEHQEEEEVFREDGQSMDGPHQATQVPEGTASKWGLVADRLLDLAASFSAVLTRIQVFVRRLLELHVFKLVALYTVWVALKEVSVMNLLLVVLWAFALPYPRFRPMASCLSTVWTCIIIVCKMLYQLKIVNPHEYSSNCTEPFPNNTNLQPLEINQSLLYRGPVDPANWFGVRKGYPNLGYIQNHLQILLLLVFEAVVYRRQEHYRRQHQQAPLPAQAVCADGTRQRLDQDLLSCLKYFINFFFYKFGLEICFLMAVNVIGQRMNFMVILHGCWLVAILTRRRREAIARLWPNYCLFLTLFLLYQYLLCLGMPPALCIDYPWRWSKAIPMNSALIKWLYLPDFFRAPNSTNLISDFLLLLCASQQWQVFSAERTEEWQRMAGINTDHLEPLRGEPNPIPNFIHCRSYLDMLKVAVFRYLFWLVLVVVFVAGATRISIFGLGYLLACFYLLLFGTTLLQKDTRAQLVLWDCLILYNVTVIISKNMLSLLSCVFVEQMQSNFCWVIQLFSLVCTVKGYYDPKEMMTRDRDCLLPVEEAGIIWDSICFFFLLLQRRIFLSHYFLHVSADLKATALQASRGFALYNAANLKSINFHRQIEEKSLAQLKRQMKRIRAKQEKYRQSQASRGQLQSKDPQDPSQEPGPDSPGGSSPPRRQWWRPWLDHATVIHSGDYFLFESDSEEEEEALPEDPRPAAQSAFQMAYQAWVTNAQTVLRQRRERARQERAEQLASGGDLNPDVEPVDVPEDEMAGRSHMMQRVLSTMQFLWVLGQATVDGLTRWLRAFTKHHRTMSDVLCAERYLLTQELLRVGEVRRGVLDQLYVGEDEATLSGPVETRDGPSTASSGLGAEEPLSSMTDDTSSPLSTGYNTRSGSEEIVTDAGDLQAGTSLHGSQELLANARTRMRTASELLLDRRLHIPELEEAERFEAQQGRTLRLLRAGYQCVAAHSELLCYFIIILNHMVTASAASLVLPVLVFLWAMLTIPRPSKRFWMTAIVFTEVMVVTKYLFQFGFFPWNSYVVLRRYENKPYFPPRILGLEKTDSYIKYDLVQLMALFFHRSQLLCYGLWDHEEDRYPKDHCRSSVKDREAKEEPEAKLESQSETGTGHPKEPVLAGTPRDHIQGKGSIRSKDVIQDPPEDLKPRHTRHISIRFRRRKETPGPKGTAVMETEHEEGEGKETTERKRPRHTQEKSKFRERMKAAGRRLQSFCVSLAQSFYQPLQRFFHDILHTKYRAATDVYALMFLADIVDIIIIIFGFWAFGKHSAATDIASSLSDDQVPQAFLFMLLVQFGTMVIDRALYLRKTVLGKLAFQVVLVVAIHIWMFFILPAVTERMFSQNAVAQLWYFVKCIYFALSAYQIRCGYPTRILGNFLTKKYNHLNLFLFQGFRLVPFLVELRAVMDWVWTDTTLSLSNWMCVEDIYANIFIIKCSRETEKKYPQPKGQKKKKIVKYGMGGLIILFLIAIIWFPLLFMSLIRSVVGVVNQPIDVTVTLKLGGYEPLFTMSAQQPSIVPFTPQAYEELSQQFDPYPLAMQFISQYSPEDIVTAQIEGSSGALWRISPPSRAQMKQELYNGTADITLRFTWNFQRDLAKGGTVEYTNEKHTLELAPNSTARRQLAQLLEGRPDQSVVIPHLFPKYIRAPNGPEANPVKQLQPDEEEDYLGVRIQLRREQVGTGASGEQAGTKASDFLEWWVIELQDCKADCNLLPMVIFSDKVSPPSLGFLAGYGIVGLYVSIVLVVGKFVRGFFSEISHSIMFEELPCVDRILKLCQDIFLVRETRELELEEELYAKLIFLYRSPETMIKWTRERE

Clc1ccnc(Cl)c1CSc1nnc(-c2cnccn2)s1 [YW-3-159]
Ptgs2 expression compared with vehicle (Piezo1 [1]): higher Ptgs2 expression
Tnfrsf11b expression compared with vehicle (Piezo1 [1]): higher Tnfrsf11b expression
Wnt1 expression compared with vehicle (Piezo1 [1]): higher Wnt1 expression
calcium influx / increase of intracellular calcium in Piezo1 knock-down cells (Piezo1 [2]): completely blocked; also recorded: loss of their ability to stimulate calcium influx
Piezo1 agonist activity (conclusion in words) (Piezo1 [3]; MLO-Y4 cells): potent agonists for Piezo1; also recorded: potent and specific Piezo1 agonists
activity in activating Piezo1 compared to Yoda1 (Piezo1 [3]; MLO-Y4 cells in vitro): comparable or superior activity
